# Experimental data taken from patent US10906878B2, “Kinase inhibitors for the treatment of disease” (Dana-Farber Cancer Institute, Inc., priority 2013, dated 2021).
# Assays:
# Type in all cases: cell-based
# EGFR Del Ba/F3 cells = EGFR Del Ba/F3 cells (Homo sapiens, UniProt P00533, cells depend on it, form not given); assay: Ba/F3 cell growth inhibition (MTS assay), EGFR Del
# Excerpt: (§1) The specific cDNAs encoding the oncogenic alterations (EGFR: Del 19, L858R, L718Q, L844V, Del/T790M, L858R/T790M, Del 19/L718Q, Del 19/L844V, Del 19/T790M/L718Q and L858R/T790M/L718Q; FGFR: TEL-FGFR1, TEL-FGFR2, TEL-FGFR1 V561M, TEL-FGFR2 V561M; ALK: EML4-ALK; ROS1: CD74-ROS1) were cloned into the pDNA-Dual (BD Biosciences) vector using standard molecular biology techniques. Mutations were introduced using site-directed mutagenesis (Agilent) with mutant specific primers according to the manufacturer's instructions. All constructs were confirmed by DNA sequencing. The constructs were introduced into Ba/F3 cells using retroviral infection. Polyclonal cell lines were established by puromycin selection and subsequently cultured in the absence of interleukin-3 (IL-3). Uninfected Ba/F3 cells or cell lines expressing green fluorescent protein (GFP) were used as controls.
# (§2) Growth and inhibition of growth was assessed by MTS assay. This assay, a colorimetric method for determining the number of viable cells, is based on the bioreduction of 3-(4,5-dimethylthiazol-2-yl)-5-(3-carboxymethoxyphenyl)-2-(4-sulfophenyl)-2H-tetrazolium (MTS) by cells to a formazan product that is soluble in cell culture medium, can be detected spectrophotometrically and was performed according to the manufacturer's recommended conditions. Ba/F3 cells were exposed to treatment for 72 hours and the number of cells used per experiment determined empirically to assure linear growth kinetics over that time period. All experimental points were set up in six to twelve wells and all experiments were repeated at least three times. […] The curves were fitted using a non-linear regression model with a sigmoidal dose response.
# [1] = target: EGFR Del/T790M Ba/F3 cells (Homo sapiens, UniProt P00533, T790M, cells depend on it, form not given); assay: Ba/F3 cell growth inhibition (MTS assay), EGFR Del/T790M; settings: for EGFR activity (% Control, 100 nM drug) Del/T790M: Table G; for EGFR activity (% Control, 100 nM drug) DEL/T790M: Table F
# Excerpt: as §1, §2
# EGFR L858R Ba/F3 cells = EGFR L858R Ba/F3 cells (Homo sapiens (Human), UniProt P00533, L858R); assay: Ba/F3 cell growth inhibition (MTS assay), EGFR L858R
# Excerpt: as §1, §2
# [2] = target: EGFR L858R/T790M Ba/F3 cells (Homo sapiens (Human), UniProt P00533, L858R/T790M); assay: Ba/F3 cell growth inhibition (MTS assay), EGFR L858R/T790M
# Excerpt: as §1, §2
# [3] = target: EGFR L718Q/L858R Ba/F3 cells (Homo sapiens (Human), UniProt P00533, L718Q/L858R); assay: Ba/F3 cell growth inhibition (MTS assay), EGFR L858R/L718Q; settings: for EGFR activity (% Control, 100 nM drug) L858R/L718Q: Table F
# [4] = target: EGFR L858R/T790M/L718Q Ba/F3 cells (Homo sapiens (Human), UniProt P00533, L718Q/L858R/T790M); assay: Ba/F3 cell growth inhibition (MTS assay), EGFR L858R/T790M/L718Q; settings: for EGFR activity (% Control, 100 nM drug) L858R/T790M/L718Q: Table F
# Excerpt: as §1, §2
SMILES,"EGFR activity (% Control, 100 nM drug) Del (EGFR Del Ba/F3 cells; Table G) [% Control]","EGFR activity (% Control, 100 nM drug) Del/T790M [1] [% Control]","EGFR activity (% Control, 100 nM drug) L858R (EGFR L858R Ba/F3 cells; Table G) [% Control]","EGFR activity (% Control, 100 nM drug) L858R/T790M ([2]; Table G) [% Control]","EGFR activity (% Control, 100 nM drug) Del (EGFR Del Ba/F3 cells; Table F) [% Control]","EGFR activity (% Control, 100 nM drug) DEL/T790M [1] [% Control]","EGFR activity (% Control, 100 nM drug) L858R (EGFR L858R Ba/F3 cells; Table F) [% Control]","EGFR activity (% Control, 100 nM drug) L858R/T790M ([2]; Table F) [% Control]","EGFR activity (% Control, 100 nM drug) L858R/L718Q [3] [% Control]","EGFR activity (% Control, 100 nM drug) L858R/T790M/L718Q [4] [% Control]",also measured
C=CC(=O)N1CC[C@H](CN(C(=O)Nc2ccccc2)c2cc(Nc3ccc(N4CCN(C)CC4)cc3OC)ncn2)C1 [Compound 33A],102,109,101,106,,,,,,,
C=CC(=O)Nc1cccc(Nc2cc(N(C(=O)Nc3ccccc3)c3ccc(N4CCN(C)CC4)cc3)ncn2)c1 [Compound 26A],87,91,11,100,,,,,,,
C=CC(=O)Nc1cccc(Nc2cc(N(C)C(=O)Nc3ccc(F)c(Cl)c3)ncn2)c1 [Compound 19A],,,,,79,71,100,101,74,99,
C=CC(=O)Nc1ccc(OC)c(Nc2cc(N(C)C(=O)Nc3ccccc3)ncn2)c1 [Compound 12A],,,,,0,117,1,48,47,84,
C=CC(=O)Nc1ccc(OC)c(Nc2cc(N(C)C(=O)NCc3ccccc3)ncn2)c1 [Compound 16A],,,,,78,86,117,71,75,92,
C=CC(=O)N1CCC[C@H]1C(=O)Nc1cc2c(N(CCOC)C(=O)NCc3ccccc3)ncnc2cc1OC [Compound 31A],111,110,108,112,,,,,,,
C=CC(=O)Nc1cccc(Nc2cc(N(C)C(=O)NCc3ccccc3)ncn2)c1 [Compound 17A],,,,,28,85,2,52,81,85,"IC50 (EGFR Del Ba/F3 cells; Assay 1, Del, read-out: EGFR Ba/F3 cells IC 50 (nM) Assay 1 Del): 63.9 nM; IC50 ([1]; Assay 1, Del/T790M, read-out: EGFR Ba/F3 cells IC 50 (nM) Assay 1 Del/T790M): 682 nM; IC50 (EGFR L858R Ba/F3 cells; Assay 1, L858R, read-out: EGFR Ba/F3 cells IC 50 (nM) Assay 1 L858R): 7.62 nM; IC50 ([2]; Assay 1, L858R/T790M, read-out: EGFR Ba/F3 cells IC 50 (nM) Assay 1 L858R/T790M): 275 nM; IC50 ([3]; Assay 1, L718Q/L858R, read-out: EGFR Ba/F3 cells IC 50 (nM) Assay 1 L718Q/L858R): 1960 nM; IC50 ([4]; Assay 1, T/L/L718Q, read-out: EGFR Ba/F3 cells IC 50 (nM) Assay 1 T/L/L718Q): 2500 nM"
"COc1ccc(NC(=O)/C=C/CN(C)C)cc1Nc1ncc2c(n1)N(C)C(=O)N(c1ccccc1)C2 [Compound 7A, (E)-4-(dimethylamino)-N-(4-methoxy-3-((8-methyl-7-oxo-6-phenyl-5,6,7,8-tetrahydropyrimido[4,5-d]pyrimidin-2-yl)amino)phenyl)but-2-enamide]",,,,,35,94,5,102,96,106,
C=CC(=O)Nc1cccc(Nc2cc(N(C(=O)NCc3ccccc3)c3ccc(N4CCN(C)CC4)cc3)ncn2)c1 [Compound 30A],94,104,10,103,,,,,,,
C=CC(=O)Nc1cccc(Nc2cc(N(C)C(=O)Nc3ccccc3)ncn2)c1 [Compound 13A],,,,,13,90,3,71,90,89,
COc1cc2ncnc(N(C)C(=O)Nc3ccccc3)c2cc1NC(=O)[C@@H]1CCCN1C(=O)CCl [Compound 28A],102,83,94,97,,,,,,,
C=CC(=O)Nc1ccc(OC)c(Nc2cc(N(C)C(=O)Nc3ccc(F)c(Cl)c3)ncn2)c1 [Compound 18A],,,,,30,84,1,85,88,92,
CN(C)C/C=C/C(=O)Nc1cccc(Nc2cc(N(C)C(=O)Nc3ccccc3)ncn2)c1 [Compound 21A],,,,,10,107,4,100,94,102,
C=CC(=O)N1CC[C@@H](CN(C(=O)Nc2ccccc2)c2cc(Nc3ccc(N4CCN(C)CC4)cc3OC)ncn2)C1 [Compound 32A],104,106,99,110,,,,,,,
C=CC(=O)N1CCC[C@H]1C(=O)Nc1ccc(OC)c(Nc2cc(N(C)C(=O)NCc3ccccc3)ncn2)c1 [Compound 23A],106,102,99,111,,,,,,,
C=CC(=O)N1CCC[C@@H]1C(=O)Nc1ccc(OC)c(Nc2cc(N(C)C(=O)NCc3ccccc3)ncn2)c1 [Compound 24A],95,101,84,108,,,,,,,
C=CC(=O)N1CCC[C@H]1C(=O)Nc1cc2c(N(C)C(=O)Nc3ccccc3)ncnc2cc1OC [Compound 27A],95,76,87,102,,,,,,,
"C=CC(=O)N1CCC[C@H]1C(=O)Nc1cc2c(N(C)C(=O)NCc3ccccc3)ncnc2cc1OC [Compound 5A, (S)-1-acryloyl-N-(4-(3-benzyl-1-methylureido)-7-methoxyquinazolin-6-yl)pyrrolidine-2-carboxamide]",100,110,107,96,,,,,,,
